The test system of data set [1] is DMBA-4 transplantable, metastatic mammary tumor. The data set is described as follows: Different components of laser-assisted immunotherapy in metastatic breast tumor-bearing rats. It counts as in vivo, Wistar Furth rats. The conditions noted are these: 0.25% ICG injection only, 0.2 mL intratumoral; 12 rats; all rats dying.
Experimental: The laser-assisted immunotherapy system consisted of a near-infrared laser diode laser with a maximum output of 25 W; the laser-absorbing dye, indocyanine green; and the immunoadjuvant, glycated chitosan. When the primary tumor was 0.2 to 0.5 cm^3, treatment was initiated in the tumor-bearing rats. A solution of 0.2 mL of GC and/or ICG was injected into the center of the primary tumor in all groups. In rats receiving laser treatment, the injections occurred 2 h before irradiation, with animals anesthetized and the hair overlaying the tumor clipped. The laser settings were 2 W and 10 min, with the laser fiber tip maintained a distance of 4 mm from the overlying skin and the laser energy directed to the treatment sites through optical fibers. The animals were individually housed following treatment. In the survival studies, the breast or prostate tumor-bearing rats were observed daily and the three dimensions of each tumor were measured weekly. Female Wistar Furth rats (5 to 6 weeks of age, 100 to 125 g) were subcutaneously inoculated with the DMBA-4 transplantable, metastatic mammary tumor (10^5 viable tumor cells) into one inguinal fat pad of each rat. The primary tumor emerged 7 to 10 days after inoculation. […] The survival rate and primary and metastatic tumor profiles were determined for the individual components and various combinations of the components.
In data set [2] the test system is Line 1 lung adenocarcinoma. The settings on record: no GC, 8 mice.
Text: To evaluate photodynamic therapy as a the method for direct tumor destruction in combination with glycated chitosan, a combination of photofrin- and meso-substituted tetra (meta-hydroxy-phenyl) chlorin-(mTHPC) based photodynamic therapy and glycated chitosan injection was been studied in the EMT6 mammary sarcoma and Line 1 lung adenocarcinoma mouse models, respectively. In each model, BALB/c mice were subcutaneously inoculated with 10^6 viable tumor cells into the lower dorsal area. Tumors were treatment size (7 to 8 mm) after 7 days.
A 0.1 mg/kg dose of mTHPC was intravenously administered 24 h prior to irradiation. Animals were shielded from direct light immediately after the photosensitizer injection until 3 days after photodynamic treatment. Mice were restrained anaesthetized in holders exposing their backs during light treatment. A 652 nm light from a 0.25 W diode laser was delivered through an 8 mm diameter liquid light guide. The power density was set at 110 mW/cm^2, fora total light dose of 30 J/cm^2.
Another data set relates to breast cancer. The protocol:
In one exemplary clinical study, two breast cancer patients received cyclophosphamide weekly (after inCVAX treatment) at a dose of between 150 and 200 mg/m^2. […] The patients continued to receive the low dose chemotherapy.

The test system of the next data set is EMT6 mammary sarcoma. Put plainly: Photofrin-based photodynamic therapy and glycated chitosan in EMT6 model. It counts as in vivo, BALB/c mice. The conditions noted are these: 8 mice.
The mark [3] stands for this setting: weekly 150-200 mg/m^2 after inCVAX treatment, two breast cancer patients.

Read-outs that look alike come from different tables or passages of the source.

The source of these data is patent US11773188B2, “Chitosan-derived compositions” (Immunophotonics, Inc, priority 2012, dated 2023).

Experimental for EMT6 mammary sarcoma: In each model, BALB/c mice were subcutaneously inoculated with 10^6 viable tumor cells into the lower dorsal area. Tumors were treatment size (7 to 8 mm) after 7 days.
In the EMT6 mammary sarcoma model, treatment groups evaluated are detailed in the table below. Photofrin (Mont-Saint-Hilaire, Quebec, Canada) was prepared in 5% sterile dextrose to a 1 mg/mL concentration. A 5 mg/kg dose of photofrin was intravenously administered 24 h prior to irradiation. Animals were shielded from direct light immediately after the photosensitizer injection until 3 days after photodynamic treatment. Mice were restrained anaesthetized in holders exposing their backs during light treatment. Light (630 nm) was delivered through an 8 mm diameter liquid light guide. The power density was set at 100 mW/cm^2, for a total light dose of 60 J/cm^2. Immediately after light irradiation, if applicable, animals were administered a peritumoral dose of 0.5 or 1.5% glycated chitosan.

With `CC1(C)C(/C=C/C=C/C=C/C=C2\N(CCCCS(=O)(=O)O)c3ccc4ccccc4c3C2(C)C)=[N+](CCCCS(=O)(=O)[O-])c2ccc3ccccc3c21` [indocyanine green], in data set [1], the “survival after single component treatment” value is “average survival times similar to the control group”. Turning to `Oc1cccc(-c2c3nc(c(-c4cccc(O)c4)c4ccc([nH]4)c(-c4cccc(O)c4)c4nc(c(-c5cccc(O)c5)c5ccc2[nH]5)CC4)C=C3)c1` [mTHPC, meso-substituted tetra (meta-hydroxy-phenyl) chlorin], in data set [2] (Laser (652 nm, 30 J/cm^2) + mTHPC 0.1 mg/kg i.v. 24 h before), the “Number of Long-Term Surviving Mice” value is 0. In addition, the “Long-term Survival Rate” value in data set [2] (Laser + mTHPC 0.1 mg/kg i.v.) amounted to 0.0%. Regarding `O=P1(N(CCCl)CCCl)NCCCO1` (centres unmarked) [cyclophosphamide], in the data set with breast cancer (setting [3]), the adverse reactions entry is “minimal adverse reactions” and the tumor response entry was “responded well to the treatment with tumor shrinkage”. Photofrin: in the data set on EMT6 mammary sarcoma (Non-Thermal Laser + Photofrin 5 mg/kg i.v. 24 h before 630 nm light 60 J/cm^2), the “Number of Long-Term Surviving Mice” value came to 3. In the data set on EMT6 mammary sarcoma (Non-Thermal Laser + Photofrin 5 mg/kg i.v., no GC), the “Long-term Survival Rate” value was found to be 37.5%. For `CC(=O)O[C@H]1C(=O)[C@@]2(C)[C@H]([C@H](OC(=O)c3ccccc3)[C@]3(O)C[C@H](OC(=O)[C@H](O)[C@@H](NC(=O)c4ccccc4)c4ccccc4)C(C)=C1C3(C)C)[C@]1(OC(C)=O)CO[C@@H]1C[C@@H]2O` [Paclitaxel], in the data set with breast cancer (weekly 75 mg/m^2 after response to cyclophosphamide slowed), the tumor response result was “the response was very good with shrinking tumors”.
